The source of these data is US20260284076A1, “TESTOSTERONE AND DIFLUOROMETHYLORNITHINE COMBINATION THERAPY FOR PROSTATE CANCER” (The Johns Hopkins University, priority 2023, published 2026).

Data set [1] deals with MYC in LNCaP and VCaP cells. In words: MYC expression by western blot, RT-PCR, RNAseq. In kind it is cell-based, human. The settings on record: R1881 10 nM, DFMO 5 mM, 96 hours; monohydrochloride, monohydrate. From the text:
(§1) FIG. 5A, FIG. 5B, FIG. 5C, FIG. 5D, and FIG. 5E show: FIG. 5A, MYC expression by IHC in a metastatic tumor biopsy from a patient before and after 3 months of BAT. FIG. 5B, Quantification of MYC protein expression from metastatic tumor biopsies from patients before and after 3 months of BAT color-coded by response (non-responder NR; responder R). […] Vinculin was used as a loading control. FIG. 5D, Principal component analysis of RNA and ATAC sequencing of LNCaP cells treated for 5 days with R1881 10 nM (SPA). […] Vinculin was used as a loading control;

The subject of another data set is VCaP cells. In words: Colony formation (clonal survival). To be noted: with or without R1881 0.5 nM, 96 hours, colonies at 14 days; monohydrochloride, monohydrate. Format: cell-based, human. An excerpt:
(§2) FIG. 3A. […] Ns, not significant. FIG. 3B. […] Ns, not significant. FIG. 3C. […] P values by ANOVA;

In data set [2] the test system is LNCaP cells. As to the kind of experiment: Colony formation (clonal survival). Format: cell-based, human. The settings on record: with or without R1881 0.5 nM, 96 hours, colonies at 14 days; monohydrochloride, monohydrate.
Text: as §2

Data set [3] relates to LNCaP cells. In words: RNAseq of treated LNCaP cells. In kind it is cell-based, human. To be noted: 96 hours.
Text: Overlap of differentially expressed transcripts occurring due to treatment as per (FIG. 27A). […] Change in RNA transcript abundance of genes located with the 8q24 topologically associated domain (TAD) in LNCaP cells treated as per (FIG. 27A).
The conditions of data set [4]: cited from earlier work.
In data set [5] the test system is AMD1 transcript in LNCaP cells. In words: AMD1 transcript stability after actinomycin, RT-PCR. Format: cell-based, human.
Data set [6] has as its system hypusinated eIF5A in PCa cell lines. As to the kind of experiment: Total and hypusinated eIF5A by western blot. In kind it is cell-based, human.
Text: as §1
FIG. 24A. Schematic highlighting generation of hypusinated eIF5A from spermidine. […] Vinculin is used as a loading control. Representative blots of n=2 independent experiments;
(In western blotting, separated proteins are transferred to a membrane and probed.)

“Also recorded” adds a separate entry of the source. Structures can show the parent of a compound that is named as a salt. Where only a bound is given, the exact number is not on record here.

For the compound `NCCCC(N)(C(=O)O)C(F)F` (centres unmarked) [DFMO, 2-(difluoromethyl)-ornithine, monohydrochloride, monohydrate], the MYC expression entry in data set [1] is listed as “reduced; also recorded: enhances downregulation of MYC by SPA”. The “clonal survival / colony formation” value in the data set with VCaP cells is on record as “inhibited clonal survival to a greater extent in R1881-treated cells than vehicle control-treated cells; also recorded: decreased colony formation”. Besides, the “clonal survival / colony formation” value in the data set with LNCaP cells [2] is “decreased colony formation”. In addition, in the data set with LNCaP cells [3], the “differentially expressed transcripts vs VEH” value is on record as “fewer”. The “side-effects of high doses” value in data set [4] (high doses) was “reversible ototoxicity and myelosuppression”. Moreover, in data set [4] (human, in vivo), the “chemoprevention trials of breast and cervix cancer” value is given as “negative”; the “doses not consistently associated with ototoxicity and myelosuppression” value was “less than 1 g/m2/d”. Besides, the “prostate polyamine levels and prostate growth” value in data set [4] (over one year) is “can reduce prostate polyamine levels and the rate of growth of the prostate”. Further, the “half-life of AMD1 transcript” value in data set [5] (96 hours treatment then actinomycin 5 μg/mL) is over 8 h. Moreover, in data set [5] (monohydrochloride, monohydrate), the “stability of AMD1 transcript” value is “markedly increased stability; also recorded: stabilizes”. Further, the eIF5A hypusination result in data set [6] is listed as “marked reduction”.
